Experimental data as given in patent publication US20120093947A1, “METHOD OF TREATING REACTIVE AIRWAY DISEASE” (UNITED STATES DEPARTMENT OF VETERANS AFFAIRS, priority 2009, published 2012).
Counter-ions that a name gives are not always drawn.

Key:
LPO = biological target: T1, LPO (Bos taurus, UniProt P80025); experiment: Nitration of salbutamol by LPO/H2O2/NO2−, A410; assay type: biochemical, bovine; settings: 100 μM salbutamol, 67 nM LPO, 4 mM H2O2, 3.5 mM NaNO2
T1 construct: Lactoperoxidase (LPO) from bovine milk (EC 1.11.1.7); purchased Sigma-Aldrich Co. (St. Louis, Mo.); host or cells: bovine milk (natural source)
Procedure: Spectrophotometric Measurements. Spectra are measured using an Agilent diode array spectrophotometer model 8453 (Agilent Technologies, Inc., Santa Clara, Calif.). Nitration of salbutamol is studied by measuring absorption spectra at designated time points following the start of the reaction. Samples are prepared in 100 mM phosphate buffers (pH 7.0). All buffers contained DTPA (100 μM) or are pretreated with Chelex-100 before use, and measurements are performed at ambient temperature of 20° C. Typically, the reaction is started by the addition of a small aliquot of H2O2 or the desired peroxidase. Time course measurements are carried out following changes in absorbance at 410 nm in 30 second intervals versus absorbance at 800 nm, where none of the compounds absorb.
Ascorbate (AscH^−) is an effective natural antioxidant protecting airways from oxidative injury. Cross et al., (1994) Environ. Health Perspect. 102 (suppl. 10):185-191. Its concentration in the respiratory tract lining fluid is estimated to be near 100 μM (Id.). We examine the effect of AscH^− on nitration of 100 μM salbutamol by 67 nM LPO, 4 mM H2O2, and 3.5 mM of NaNO2 by measuring absorption at 410 nm. […] The duration of the lag period depends on AscH^− concentration. […] See, e.g., Reszka et al. (1999) Free Radic. Biol. & Med. 26:669-678.
As noted earlier, methimazole is an antithyroid drug, an effective inhibitor of LPO activity. 100 μM of salbutamol is reacted with 73 nM LPO, 3.5 mM NaNO2, and 4 mM H2O2 at pH buffer 7.0 in the presence of 0, 27, 55, and 109 μM methimazole (shown in FIG. 9, section A, traces a-d, respectively). Traces c and d also indicate by arrow when additional LPO is added to the system. […] In contrast to effects exerted by AscH^− or SCN^−, methimazole-dependent inhibition is permanent and is probably due to inactivation of the enzyme, since a second dose of LPO reactivates the process (FIG. 9, section A, trace c).
Dapsone, an anti-inflammatory and anti-leprotic agent, is a potent inhibitor of LPO and MPO. See, e.g., Kettle et al. (1991) Biochem. Pharmacol. 41(10):1485-1492; Bozeman et al. (1992) Biochem. Pharmacol. 44(2):553-563. 97 μM of salbutamol is reacted with 65 nM LPO, 3.4 mM NaNO2, and 4 mM H2O2 at pH buffer 7.0 in the presence of 0, 2.5, 5, 10, 50, and 100 μM dapsone (shown in FIG. 10, traces a-f, respectively). The arrows in traces d and e of FIG. 10 indicate where additional LPO is added to the system. […] Dapsone at 50 μM inhibited nitration by approximately 86%. Given the high concentrations of NaNO2 and H2O2 used in this system, dapsone appears to be a potent blocker of nitration.
The extent of nitration is expressed as a change in ΔA410 versus control (dapsone omitted) taken as 100% after 10, 30, and 60 minute reactions for LPO, MPO, and EPO nitrating systems, respectively. Results equal the means±SE of at least two measurements. In the LPO system, 100 μM of salbutamol, 3.4 mM of NaNO2, 4 mM of H2O2, and 65 nM of LPO is used. In the MPO system, 50 μM of salbutamol, 5.0 mM of NaNO2, 5 mM of H2O2, and 0.2 U/mL of MPO is used. In the EPO system, 50 μM of salbutamol, 5 mM of NaNO2, 2 mM of H2O2, and 0.075 U/mL of EPO is used. All reactions were carried out in pH 7.0 phosphate buffer containing DMSO (5% v/v). The term “nitrophenols” includes nitrosalbutamol (N-Sal) and salbutamol-derived nitrophenol (N—ArOH).

MPO [1] = biological target: T2, MPO (Homo sapiens, UniProt P05164); experiment: Oxidation of β2-agonists by MPO/H2O2, spectrophotometric ΔA315; assay type: biochemical; set-up: Myeloperoxidase (MPO) from human leucocytes (lyophilized powder); purchased Axxora, LLC (San Diego, Calif.); host or cells: human leucocytes (natural source); settings: 100 μM AscH−, 200 mU/mL MPO, 50 μM H2O2
T2 sequence (P05164 279-745 limits assumed): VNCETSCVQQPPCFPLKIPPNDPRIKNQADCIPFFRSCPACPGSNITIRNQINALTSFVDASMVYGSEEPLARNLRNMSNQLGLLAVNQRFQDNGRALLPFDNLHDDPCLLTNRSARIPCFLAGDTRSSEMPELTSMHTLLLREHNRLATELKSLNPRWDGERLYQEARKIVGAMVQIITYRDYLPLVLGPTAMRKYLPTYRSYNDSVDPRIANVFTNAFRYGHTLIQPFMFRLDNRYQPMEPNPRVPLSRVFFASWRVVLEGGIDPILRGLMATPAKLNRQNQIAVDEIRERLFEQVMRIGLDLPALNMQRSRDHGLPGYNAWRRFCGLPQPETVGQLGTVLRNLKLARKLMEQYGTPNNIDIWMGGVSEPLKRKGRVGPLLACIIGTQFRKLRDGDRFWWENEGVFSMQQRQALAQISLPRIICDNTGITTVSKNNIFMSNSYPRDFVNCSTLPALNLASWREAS
T2 sequence (P05164 165-273 limits assumed): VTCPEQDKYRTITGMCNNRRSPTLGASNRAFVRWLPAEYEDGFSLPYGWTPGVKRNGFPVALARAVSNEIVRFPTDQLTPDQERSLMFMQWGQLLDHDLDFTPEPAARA
Procedure: Spectrophotometric Measurements. Spectra are measured using an Agilent diode array spectrophotometer model 8453 (Agilent Technologies, Inc., Santa Clara, Calif.). Oxidation of β2-agonists is studied by measuring absorption spectra at designated time points following reaction starts. Samples are prepared in 50 mM acetate buffer (pH 5.0), 50 and 100 mM phosphate buffers (pH 7.0 and 8.0) and 100 mM Tris/HCl (pH 9.19). All buffers contain DTPA (100 and 200 μM) and measurements are performed at an ambient temperature of 20° C. The reaction is started by the addition of a small aliquot of H2O2 (2, 5 or 10 μL), or glucose oxidase (1 μL), if glucose/glucose oxidase was used to generate H2O2, to a sample containing a studied compound, peroxidase and, if required, an inhibiting co-factor. Time course measurements are carried out following changes in absorbance at 315 nm in 15 second intervals versus absorbance at 800 nm, where none of the compounds absorb. The 315 nm wavelength is chosen because β2-agonists' oxidation products absorb intensely near 315 nm, and because it is close to the absorption maximum of tyrosine dimers.
The concentration of AscH^− in airway fluid was estimated to be near 100 μM (Id.), so we use concentrations within this physiological range. […] AscH^− affects oxidation of salbutamol and fenoterol similarly, causing delay in the net oxidation of both drugs. A315 increases after a lag period, the duration of which depends on AscH^− concentration. Net oxidation of the drugs occurs only when AscH^− is consumed. […] This is understandable given that the concentration of H2O2 was only 50 μM and the peroxide was used to oxidize both the drugs and AscH^−. […] The proposed mechanisms of inhibition are reactions A and B, shown below, which reveal that recovery of the drug occurs at the expense of AscH^−, which is oxidized to the ascorbate radical (A^•−).
[…]. The extent of oxidation is expressed as ΔA315±SE versus control (in %) during 22 minutes of reaction at 20° C. Values are the mean of at least duplicate determinations.

[2] = tested on: murine airway smooth muscle cells; experiment: cAMP production in airway smooth muscle cells, fluorescent detection assay; assay type: cell-based; settings: 15 minutes, read-out: EC50, stimulation of cAMP synthesis
MPO [3] = biological target: T2, MPO; experiment: EPR of ascorbate radicals during oxidation of β2-agonists by MPO/H2O2; assay type: biochemical; set-up: Myeloperoxidase (MPO) from human leucocytes (lyophilized powder); purchased Axxora, LLC (San Diego, Calif.); host or cells: human leucocytes (natural source); settings: 100 μM ascorbate, MPO 0.01 U/250 μL, H2O2 39 μM, pH 7.0
Procedure: (§1) The sample is transferred to a flat aqueous EPR cell and recording is started one minute after initiation of the reaction. The spectra of DMPO adducts are recorded using the same parameters as above but the sweeping rate is 8 mT/41.92 s. The EPR spectra of ascorbate radicals are obtained using microwave power 5 mW, modulation amplitude 0.05 mT, scan rate 4 mT/41.92 s. EPR spectra shown are an average of 5 scans and represent results of a typical experiment.
Formation of Asc^•− during oxidation of β2-agonists by MPO/H2O2 in the presence of 100 μM AscH^− is investigated by EPR. […] Spectrum A is the EPR of 100 μM ascorbate without additives. Sprectrun B is the EPR spectrum of 100 μM ascorbate in the presence of MPO (0.01 U/250 μL) and H2O2 (39 μM). Spectra C and D are the EPR spectra of 100 μM ascorbate in the presence of MPO (0.01 U/250 μ), H2O2 (39 μM), and 40 μM and 100 μM of salbutamol, respectily. Spectrum E is the EPR spectrum of 100 μM ascorbate in the presence of MPO (0.01 U/250 μL), H2O2 (39 μM) and 20 μM of fenoterol. All reactions occur in pH 7.0 buffer (50 mM) containing DTPA (0.2 mM).

[4] = human
Procedure: Exhaled breath condensate (“EBC”) samples. EBC samples are collected during 10 min of quiet breathing through a single-use disposable RTube collector (Respiratory Research, Inc., Charlottesville, Va., USA) while subjects are wearing a nose clip. The aluminum sleeve of the device is cooled to an initial temperature of −20° C. prior to collection. After collection, a plunger is used to pool the condensed material within the tube into a single sample (about 1.0 ml). Samples are stored in the reaction tube at a temperature of −80° C. until thawed and processed for analysis.
Mass Spectrometry. The experiment is performed on a Thermo Fisher Scientific LTQ-FT, a hybrid instrument consisting of a linear ion trap and a Fourier transform ion cyclotron resonance mass spectrometer. Liquid chromatography separation of the sample components utilizes a Waters XBridge™ C18 3.5 μm 2.1×100 mm column, Finnigan Surveyor MS pump, and Finnigan Micro AS autosampler. A 200 μL/min gradient elution of water and acetonitrile, both containing 0.1% formic acid, occurs as follows: 5% to 32% acetonitrile in first eight minutes followed by a rapid rise to 95% acetonitrile within the next minute, held at 95% for an additional seven minutes. […]

MPO [5] = biological target: T2, MPO; experiment: EPR spin trapping of GS radicals (DMPO/SG adduct) with MPO/H2O2; assay type: biochemical; set-up: Myeloperoxidase (MPO) from human leucocytes (lyophilized powder); purchased Axxora, LLC (San Diego, Calif.); settings: 2 μM fenoterol, 4 mM GSH, 18 mM DMPO, pH 7.0
Procedure: as §1
Spectrum e is the same reaction as spectrum d with the exception that no GSH is used.
The EPR spectrum generated in the presence of 2 μM fenoterol (FIG. 3, section B, spectrum a) is approximately a two-fold more intense than that observed in the presence of 80 μM salbutamol (FIG. 3, section A, spectrum b). This confirms the higher reactivity of a metabolite(s) derived from fenoterol. […] The higher stimulatory action of fenoterol, when compared to that of salbutamol, implies that the compound's resorcinol moiety may play a dominating role in the interaction with GSH. The proposed cycle of redox reactions involving fenoterol, AscH^− and GSH is depicted in reaction B, presented earlier.

Question: Which “Nitration of salbutamol by LPO/H2O2/NO2− (A410 versus time)” value (LPO; AscH− at near physiological concentrations (55, 88, 109 μM)) does the source give for `O=C1O[C@H]([C@@H](O)CO)C(O)=C1O` [AscH^−, ascorbic acid] here?
Answer: only transiently inhibits

Question: And the “Nitration of salbutamol by LPO/H2O2/NO2− (A410 versus time)” value (LPO; ascorbate ˜1 mM)?
Answer: completely prevents

Question: And the “Oxidation of fenoterol by MPO/H2O2 (A315 versus time)” value (MPO [1]; 200 μM fenoterol)?
Answer: completely inhibited

Question: What about the “Oxidation of salbutamol by MPO/H2O2 (A315 versus time)” value (MPO [1]; 1 mM salbutamol) of the same compound?
Answer: completely inhibited

Question: Which results are given for Salbutamol hemisulfate?
Answer: EC50 [2]: 0.0248 µM; EPR spectrum of ascorbate radical, more intense than with MPO/H2O2 alone (MPO [3]; 40 μM salbutamol): approximately 76%; EPR spectrum of ascorbate radical, more intense than with MPO/H2O2 alone (MPO [3]; 100 μM salbutamol): ~117%; Salbutamol transformation in vivo (nitrophenol of m/z 255.13 in breath condensate) [4]: undergoes oxidation and nitration

Question: For `CC(Cc1ccc(O)cc1)NCC(O)c1cc(O)cc(O)c1` (stereo not shown) [fenoterol, fenoterol hydrobromide], which “EPR spectrum of ascorbate radical, more intense than with MPO/H2O2 alone” value (MPO [3]; 20 μM fenoterol) is on record?
Answer: 270%

Question: And the “EPR spectrum of DMPO/SG adduct, intensity relative to 80 μM salbutamol” value (MPO [5])?
Answer: two-fold
